Publication PMC9168383, “Structural and functional insights into the DNA damage-inducible protein 1 (Ddi1) from protozoa” (Current Research in Structural Biology, 2022)
Ends that are not written are not given here.

Tests used:
[1] = target: CrypDdi1-RVP (Cryptosporidium hominis); test: crystal structure; CrypDdi1-RVP, microbatch, 8 mg/ml, 0.1 M MES-sodium hydroxide pH 6.0, 30% polyacrylate sodium salt, 10% ethanol, 291 K; space group H32, one molecule in the asymmetric unit, dimer by crystallographic 2-fold symmetry
[2] = test system: T. gondii; settings: ref Wang et al., 2019; cited from earlier work
[3] = target: T1, LeishDdi1-fl (Leishmania major, UniProt I7HUG0); test: BLI binding of peptides to LeishDdi1-fl; parameters: species or system L. major; settings: 5 mM peptide immobilized on AR2G tip, LeishDdi1-fl in solution, 20 mM HEPES pH 7.5, 100 mM NaCl, 10 min, 1:1 Langmuir
T1 construct: The full length Ddi1 construct, LeishDdi1-fl (1–390 aa) was cloned in pET-28a vector; hexa-histidine (N); made in house; host or cells: E. coli BL-21

[4] = target: T2, CrypDdi1-RVP (Cryptosporidium hominis, UniProt A0A0S4TE75); test: FRET activity assay with HIV protease substrate-1 and inhibition by HIV protease inhibitors, CrypDdi1-RVP; assay type: biochemical, C. hominis
Procedure: (§1) The activity assay was carried out using HIV protease substrate-1 (Sigma-aldrich). […] It contains the HIV protease cleavage site (Tyr-Pro) and two covalently modified amino acids for the detection of the proteolytic activity: the fluorophore EDANS was attached to the glutamic acid residue on the N-terminal side and the acceptor chromophore DABCYL to the lysine residue on the C-terminal side of the scissile bond. EDANS excited with light at 340 nm emits light at 490 nm which gets absorbed by the DABCYL group. Cleavage of the peptide separates the modified amino acids quenching FRET and emission could be detected at 490 nm ToxoDdi1-RVP and CrypDdi1-RVP were added in different concentrations to 2 μM of HIV protease substrate-1 in a buffer containing 0.1M sodium acetate pH 4.5, 1.0 M sodium chloride, 1.0 mM EDTA, 1.0 mM DTT and 10% DMSO. […] All the samples were incubated at 37 °C for 1 h and the fluorescence emission was recorded at 490 nm.

[5] = target: T3, ToxoDdi1-RVP (Toxoplasma gondii, UniProt S7W9N7); test: FRET activity assay with HIV protease substrate-1 and inhibition by HIV protease inhibitors, ToxoDdi1-RVP; assay type: biochemical, T. gondii
Procedure: as §1

[6] = target: T2, CrypDdi1-RVP; test: HPLC cleavage of HIV protease substrate-1 by CrypDdi1-RVP; assay type: biochemical, C. hominis; settings: 10 μM substrate, 22 μg/ml CrypDdi1-RVP, UV 490 nm
[7] = target: T3, ToxoDdi1-RVP; test: HPLC cleavage of HIV protease substrate-1 by ToxoDdi1-RVP; assay type: biochemical, T. gondii; settings: 10 μM substrate, 22 μg/ml ToxoDdi1-RVP, 100 mM sodium acetate pH 4.7, 1 M NaCl, 1 mM DTT, 37 °C, UV 490 nm
[8] = target: T2, CrypDdi1-RVP; test: Bio-layer interferometry (BLI), CrypDdi1-RVP; assay type: binding, C. hominis; settings: inhibitor 75-600 μM; for binding of inhibitor to CrypDdi1-RVP: MES pH 5.5
[9] = test system: human Ddi2; settings: ref Gu et al., 2020, Fassmannova et al.; cited from earlier work
[10] = target: T3, ToxoDdi1-RVP; test: biochemical; assay type: binding
[11] = target: ToxoDdi1-RVP (Toxoplasma gondii); test: crystal structure; ToxoDdi1-RVP, microbatch, 8 mg/ml, 1.8 M ammonium citrate tribasic pH 7.0, 30% 2-propanol, 291 K; space group P41212, six dimers in the asymmetric unit

T2 sequence (A0A0S4TE75 entry or part of it): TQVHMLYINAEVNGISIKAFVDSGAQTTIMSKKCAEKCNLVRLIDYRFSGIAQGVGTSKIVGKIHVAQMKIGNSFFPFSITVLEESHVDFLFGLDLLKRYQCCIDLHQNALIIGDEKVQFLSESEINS
T3 sequence (S7W9N7 entry or part of it): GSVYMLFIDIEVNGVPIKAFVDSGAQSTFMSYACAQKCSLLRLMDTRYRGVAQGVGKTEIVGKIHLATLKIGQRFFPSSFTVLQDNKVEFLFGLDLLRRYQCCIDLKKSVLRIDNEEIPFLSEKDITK
T1 sequence (I7HUG0 whole entry, the tested form may be a part): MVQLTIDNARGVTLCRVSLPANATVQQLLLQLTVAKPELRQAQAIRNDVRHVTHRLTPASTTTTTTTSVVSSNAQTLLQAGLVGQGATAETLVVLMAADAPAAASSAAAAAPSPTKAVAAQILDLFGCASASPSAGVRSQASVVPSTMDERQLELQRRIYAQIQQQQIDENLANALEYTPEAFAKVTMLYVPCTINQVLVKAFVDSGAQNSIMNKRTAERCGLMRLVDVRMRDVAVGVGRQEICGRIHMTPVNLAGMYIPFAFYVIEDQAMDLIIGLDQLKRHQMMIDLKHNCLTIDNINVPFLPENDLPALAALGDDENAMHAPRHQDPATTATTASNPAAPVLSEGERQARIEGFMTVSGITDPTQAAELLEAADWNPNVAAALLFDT

Q: For CrypDdi1-RVP (domain or fragment), which stoichiometry N [1] is on record?
A: 2

Q: For `CC(C)c1nc(CN(C)C(=O)N[C@H](C(=O)N[C@@H](Cc2ccccc2)C[C@H](O)[C@H](Cc2ccccc2)NC(=O)OCc2cncs2)C(C)C)cs1` [ritonavir], which “growth of T. gondii” value [2] is on record?
A: inhibit the growth of T. gondii

Q: With GVGRQEI [GVGRQEI] as the compound, how does the Kd [3] read?
A: 25.3 ± 3.5 µM

Q: What does the source list for “Arg-Glu(EDANS)-Ser-Gln-Asn-Tyr-Pro-Ile-Val-Gln-Lys(DABCYL)-Arg [HIV protease substrate-1, synthetic FRET peptide containing the HIV protease cleavage site (Tyr-Pro), Sigma-aldrich]”?
A: substrate cleavage: fluorescence intensity with increasing protein concentration, CrypDdi1-RVP ([4]; 2 μM substrate, no inhibitor, different CrypDdi1-RVP concentrations): An increase in the fluorescence intensity was observed with increasing protein concentration; substrate cleavage: fluorescence intensity with increasing protein concentration, ToxoDdi1-RVP ([5]; 2 μM substrate, no inhibitor, different ToxoDdi1-RVP concentrations): An increase in the fluorescence intensity was observed with increasing protein concentration; substrate cleavage by HPLC, CrypDdi1-RVP, 1 h ([6]; 100 mM sodium acetate pH 4.7, 1 M NaCl, 1 mM DTT, 37 °C, 1 h): completely cleaved; substrate cleavage by HPLC, CrypDdi1-RVP, 30 min ([6]; pH 4.7, 37 °C, 30 min): both the substrate and the product were detected; substrate cleavage by HPLC, ToxoDdi1-RVP, 1 h [7]: completely cleaved

Q: With `CC(C)(C)NC(=O)[C@@H]1CN(Cc2cccnc2)CCN1C[C@@H](O)C[C@@H](Cc1ccccc1)C(=O)N[C@H]1c2ccccc2C[C@H]1O` [indinavir] as the compound, how does the “binding of inhibitor to CrypDdi1-RVP” value [8] read?
A: do not bind

Q: For `Cc1c(O)cccc1C(=O)N[C@@H](CSc1ccccc1)[C@H](O)CN1C[C@H]2CCCC[C@H]2C[C@H]1C(=O)NC(C)(C)C` [nelfinavir], which “binding of inhibitor to CrypDdi1-RVP” value [8] is on record?
A: do not bind

Q: And the “effect on proteolytic activity of ToxoDdi1-RVP” value ([5]; 500 μM inhibitor, 20 μM ToxoDdi1-RVP, 2 μM HIV protease substrate-1, 0.1M sodium acetate pH 4.5, 1.0 M NaCl, 1.0 mM EDTA, 1.0 mM DTT, 10% DMSO, 37 °C, 1 h, emission 490 nm)?
A: has an inhibitory effect on the proteolytic activity of ToxoDdi1-RVP

Q: What about the “fluorescence intensity in the presence of inhibitor, ToxoDdi1-RVP” value ([5]; 500 μM inhibitor, 20 μM ToxoDdi1-RVP, FRET, 490 nm, 37 °C, 1 h) of the same compound?
A: did not increase

Q: What about the “inhibition of human Ddi2 activity” value [9] of the same compound?
A: ability to inhibit the activity of human Ddi2

Q: And the “growth of T. gondii” value [2]?
A: inhibit the growth of T. gondii

Q: What about the Kd [10] of the same compound?
A: 238 ± 6.3 µM

Q: For `CC(C)(C)NC(=O)[C@@H]1C[C@@H]2CCCC[C@@H]2CN1C[C@@H](O)[C@H](Cc1ccccc1)NC(=O)[C@H](CC(N)=O)NC(=O)c1ccc2ccccc2n1` [saquinavir], which “effect on proteolytic activity of CrypDdi1-RVP” value ([4]; 500 μM inhibitor, 20 μM CrypDdi1-RVP, 2 μM HIV protease substrate-1, 0.1M sodium acetate pH 4.5, 1.0 M NaCl, 1.0 mM EDTA, 1.0 mM DTT, 10% DMSO, 37 °C, 1 h, emission 490 nm) is on record?
A: has an inhibitory effect on the proteolytic activity of CrypDdi1-RVP

Q: And the “fluorescence intensity in the presence of inhibitor, CrypDdi1-RVP” value ([4]; 500 μM inhibitor, 20 μM CrypDdi1-RVP, FRET, 490 nm, 37 °C, 1 h)?
A: did not increase

Q: And the Kd ([8]; Octet Red96, His-tagged CrypDdi1-RVP on Ni-NTA tip, 100 mM MES pH 5.5, 150 mM NaCl, 0.5% BSA, 0.05% Tween 20, 3 min, 1:1 Langmuir)?
A: 242 ± 3 µM

Q: What about the “binding of inhibitor to ToxoDdi1-RVP” value ([10]; BLI, inhibitor 75-600 μM, MES pH 5.5) of the same compound?
A: do not bind

Q: With ToxoDdi1-RVP (domain or fragment) as the compound, how does the stoichiometry N [11] read?
A: 2

Q: Which Kd [3] does the source give for MIWRKPW [MIWRKPW] here?
A: 2.8 ± 1.5 µM
